Holding throughout (type): cell-based
Assay [1] deals with T1, protein kinases (human kinome) (Homo sapiens, UniProt P33981).
T1 sequence (P33981 1-857): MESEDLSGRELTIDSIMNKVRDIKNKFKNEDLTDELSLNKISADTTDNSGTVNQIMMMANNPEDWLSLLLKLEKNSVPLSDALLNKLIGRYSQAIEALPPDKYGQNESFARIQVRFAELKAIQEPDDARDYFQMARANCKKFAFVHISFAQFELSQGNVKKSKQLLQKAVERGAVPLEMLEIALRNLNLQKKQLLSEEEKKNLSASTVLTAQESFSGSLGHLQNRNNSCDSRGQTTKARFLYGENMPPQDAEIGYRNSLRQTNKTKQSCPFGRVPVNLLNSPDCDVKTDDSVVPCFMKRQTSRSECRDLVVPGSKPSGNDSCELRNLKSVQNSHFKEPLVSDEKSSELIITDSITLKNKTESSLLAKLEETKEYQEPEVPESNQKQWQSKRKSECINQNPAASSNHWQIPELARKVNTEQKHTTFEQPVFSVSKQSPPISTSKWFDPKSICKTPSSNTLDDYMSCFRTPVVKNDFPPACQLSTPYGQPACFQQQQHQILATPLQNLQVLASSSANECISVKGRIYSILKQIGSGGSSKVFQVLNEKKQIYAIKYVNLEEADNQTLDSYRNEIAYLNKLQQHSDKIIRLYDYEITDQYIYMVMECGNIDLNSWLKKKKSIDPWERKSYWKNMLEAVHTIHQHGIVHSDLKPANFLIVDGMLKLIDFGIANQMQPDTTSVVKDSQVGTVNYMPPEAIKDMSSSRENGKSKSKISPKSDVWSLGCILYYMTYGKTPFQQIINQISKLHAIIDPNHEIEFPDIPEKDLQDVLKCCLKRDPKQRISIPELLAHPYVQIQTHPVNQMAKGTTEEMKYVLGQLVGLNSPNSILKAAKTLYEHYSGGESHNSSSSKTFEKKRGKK
As to conditions: for logFC TTK: Accession P33981.

The target in assay [2] is protein kinases (human kinome) (Homo sapiens, UniProt Q00537). As to conditions: for logFC of CDK17: Accession Q00537; for logFC CDK17 (Q00537): direction of change down.
Sequence of protein kinases (human kinome) (Homo sapiens, UniProt Q00537) (Q00537 whole entry): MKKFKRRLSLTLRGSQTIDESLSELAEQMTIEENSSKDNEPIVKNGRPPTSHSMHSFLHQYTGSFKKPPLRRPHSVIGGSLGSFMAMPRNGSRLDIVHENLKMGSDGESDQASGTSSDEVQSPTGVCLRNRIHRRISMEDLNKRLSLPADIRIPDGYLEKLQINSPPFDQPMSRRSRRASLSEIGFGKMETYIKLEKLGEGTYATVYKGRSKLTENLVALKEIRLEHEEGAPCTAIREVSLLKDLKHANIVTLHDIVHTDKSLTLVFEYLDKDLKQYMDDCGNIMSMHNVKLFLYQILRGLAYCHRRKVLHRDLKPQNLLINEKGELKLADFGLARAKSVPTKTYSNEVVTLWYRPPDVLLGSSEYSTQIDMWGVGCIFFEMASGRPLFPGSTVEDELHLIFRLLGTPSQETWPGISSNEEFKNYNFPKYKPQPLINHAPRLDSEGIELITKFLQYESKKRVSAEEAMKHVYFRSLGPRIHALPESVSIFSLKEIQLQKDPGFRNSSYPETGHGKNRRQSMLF
For assay [3], the target named is protein kinases (human kinome) (Homo sapiens, UniProt Q14004). As to conditions: for logFC CDK13: Accession Q14004-1.
Sequence of protein kinases (human kinome) (Homo sapiens, UniProt Q14004) (Q14004 whole entry): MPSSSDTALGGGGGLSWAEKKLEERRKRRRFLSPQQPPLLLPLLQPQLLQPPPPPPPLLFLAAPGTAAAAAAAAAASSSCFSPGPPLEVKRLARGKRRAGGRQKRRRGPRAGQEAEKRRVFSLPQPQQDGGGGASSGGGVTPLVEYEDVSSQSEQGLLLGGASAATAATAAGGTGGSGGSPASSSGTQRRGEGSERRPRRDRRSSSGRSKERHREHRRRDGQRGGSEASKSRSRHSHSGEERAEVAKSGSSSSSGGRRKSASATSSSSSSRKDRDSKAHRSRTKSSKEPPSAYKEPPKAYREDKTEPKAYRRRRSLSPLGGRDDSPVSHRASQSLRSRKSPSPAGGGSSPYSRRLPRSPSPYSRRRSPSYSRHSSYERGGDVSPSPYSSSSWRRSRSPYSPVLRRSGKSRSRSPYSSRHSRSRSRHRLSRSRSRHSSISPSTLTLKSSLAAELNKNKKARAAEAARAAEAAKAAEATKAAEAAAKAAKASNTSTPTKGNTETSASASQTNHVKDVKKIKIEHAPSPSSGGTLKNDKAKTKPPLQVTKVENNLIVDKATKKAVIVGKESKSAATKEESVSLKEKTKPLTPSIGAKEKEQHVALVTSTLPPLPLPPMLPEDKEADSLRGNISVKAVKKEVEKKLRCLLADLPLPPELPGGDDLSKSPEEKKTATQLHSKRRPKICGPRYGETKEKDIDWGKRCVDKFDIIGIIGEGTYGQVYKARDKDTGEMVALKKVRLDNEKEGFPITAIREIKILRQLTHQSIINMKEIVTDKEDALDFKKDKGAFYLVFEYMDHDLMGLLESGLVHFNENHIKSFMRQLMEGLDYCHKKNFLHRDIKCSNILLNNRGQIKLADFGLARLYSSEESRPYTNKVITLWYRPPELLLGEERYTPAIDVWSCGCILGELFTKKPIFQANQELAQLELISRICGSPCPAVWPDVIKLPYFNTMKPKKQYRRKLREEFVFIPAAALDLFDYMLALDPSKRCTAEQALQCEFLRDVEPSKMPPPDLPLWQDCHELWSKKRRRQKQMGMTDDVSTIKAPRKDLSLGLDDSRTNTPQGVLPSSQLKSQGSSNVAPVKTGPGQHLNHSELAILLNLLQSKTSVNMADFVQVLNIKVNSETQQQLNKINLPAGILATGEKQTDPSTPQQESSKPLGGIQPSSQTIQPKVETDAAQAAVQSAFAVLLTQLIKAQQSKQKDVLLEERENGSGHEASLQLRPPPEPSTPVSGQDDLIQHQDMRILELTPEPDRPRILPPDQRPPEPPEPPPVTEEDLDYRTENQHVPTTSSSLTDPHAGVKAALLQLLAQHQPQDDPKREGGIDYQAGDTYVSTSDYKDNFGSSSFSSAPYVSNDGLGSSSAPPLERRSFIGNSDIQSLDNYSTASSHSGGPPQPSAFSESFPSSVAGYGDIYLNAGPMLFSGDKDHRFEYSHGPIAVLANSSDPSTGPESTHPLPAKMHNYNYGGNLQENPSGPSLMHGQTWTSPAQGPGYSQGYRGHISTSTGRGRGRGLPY
Assay [4] deals with protein kinases (human kinome) (Homo sapiens, UniProt P51812). As to conditions: RPS6KA3 (P51812).
Sequence of protein kinases (human kinome) (Homo sapiens, UniProt P51812) (P51812 whole entry): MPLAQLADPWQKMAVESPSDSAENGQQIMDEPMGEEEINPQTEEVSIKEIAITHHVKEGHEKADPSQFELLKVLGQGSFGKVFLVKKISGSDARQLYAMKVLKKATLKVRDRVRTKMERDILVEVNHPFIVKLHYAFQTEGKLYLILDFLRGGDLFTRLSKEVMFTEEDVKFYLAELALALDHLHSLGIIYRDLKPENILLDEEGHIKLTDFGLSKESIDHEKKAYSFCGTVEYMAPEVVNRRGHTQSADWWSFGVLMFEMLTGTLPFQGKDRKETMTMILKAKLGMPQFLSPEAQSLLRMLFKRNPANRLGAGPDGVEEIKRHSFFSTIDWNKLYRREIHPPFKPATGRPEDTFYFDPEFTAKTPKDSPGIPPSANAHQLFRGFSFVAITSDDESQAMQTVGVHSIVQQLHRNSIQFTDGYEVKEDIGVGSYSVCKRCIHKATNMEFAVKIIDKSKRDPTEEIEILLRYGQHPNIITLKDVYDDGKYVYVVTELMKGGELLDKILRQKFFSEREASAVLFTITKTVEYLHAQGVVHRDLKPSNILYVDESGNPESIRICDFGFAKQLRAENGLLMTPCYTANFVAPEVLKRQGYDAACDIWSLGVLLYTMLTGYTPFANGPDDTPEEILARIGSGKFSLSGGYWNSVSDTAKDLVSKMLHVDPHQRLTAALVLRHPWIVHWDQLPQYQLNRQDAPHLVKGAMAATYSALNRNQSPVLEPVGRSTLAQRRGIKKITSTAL
In assay [5] the target is protein kinases (human kinome) (Homo sapiens, UniProt P53667). As to conditions: LIMK1 (P53667-1).
Sequence of protein kinases (human kinome) (Homo sapiens, UniProt P53667) (P53667 whole entry): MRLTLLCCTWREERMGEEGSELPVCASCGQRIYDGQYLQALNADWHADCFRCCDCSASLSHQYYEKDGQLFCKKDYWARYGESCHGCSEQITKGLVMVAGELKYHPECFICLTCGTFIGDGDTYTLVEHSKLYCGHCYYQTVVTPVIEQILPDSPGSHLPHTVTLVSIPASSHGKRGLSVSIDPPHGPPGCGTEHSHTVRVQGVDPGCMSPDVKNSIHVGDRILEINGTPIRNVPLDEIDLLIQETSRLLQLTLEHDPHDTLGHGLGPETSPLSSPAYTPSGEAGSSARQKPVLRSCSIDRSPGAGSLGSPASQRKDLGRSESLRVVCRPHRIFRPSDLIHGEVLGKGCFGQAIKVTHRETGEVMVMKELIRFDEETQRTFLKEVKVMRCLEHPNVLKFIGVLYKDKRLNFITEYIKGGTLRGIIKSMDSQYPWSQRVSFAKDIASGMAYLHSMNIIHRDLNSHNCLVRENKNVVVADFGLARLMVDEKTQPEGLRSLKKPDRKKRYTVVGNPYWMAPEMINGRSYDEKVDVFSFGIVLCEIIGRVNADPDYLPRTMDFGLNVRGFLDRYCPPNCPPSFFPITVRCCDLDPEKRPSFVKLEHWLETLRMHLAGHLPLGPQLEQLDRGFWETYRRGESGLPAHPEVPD

Read-outs that look alike come from different tables or passages of the source.

Data on five molecules can be found in patent publication US20240269139A1, “COMPOUNDS FOR TARGETED PROTEIN DEGRADATION OF KINASES” (DANA-FARBER CANCER INSTITUTE, INC., priority 2020, published 2024).

`O=C1CCC(N2C(=O)c3cccc(NCCCCCCCCN4CCC(NC(=O)c5[nH]ncc5NC(=O)c5c(Cl)cccc5Cl)CC4)c3C2=O)C(=O)N1` (stereo not shown) [MFH.5.126.1]: in assay [1] (experiment wp076), the “logFC TTK” value was −0.4412 and the “logFC TTK (P33981)” value is recorded as −0.4412. The “logFC of CDK17” value in assay [2] (experiment wp076) is recorded as −0.5894. Besides, in assay [2] (Experiment wp076), the “logFC CDK17 (Q00537)” value is recorded as −0.5894. In assay [3] (experiment wp076), the “logFC CDK13” value is given as −0.4846 and the “logFC CDK13 (Q14004-1)” value is reported as −0.4846.
Regarding `CNC(=O)c1ccccc1Nc1cc(Nc2ccc(N3CCN(CCOCCOCCNC(=O)CNc4cccc5c4C(=O)N(C4CCC(=O)NC4=O)C5=O)CC3)cc2OC)ncc1C(F)(F)F` (stereo not shown) [MFH.5.103.1], the logFC in assay [4] (experiment wp076) is on record as −1.165; in assay [4] (experiment wp076, direction down) it was −1.165.
With `CC(C)S(=O)(=O)c1ccccc1Nc1nc(Nc2ccc(N3CCN(CCOCCNC(=O)CNc4cccc5c4C(=O)N(C4CCC(=O)NC4=O)C5=O)CC3)cc2)ncc1Cl` (stereo not shown) [SK.3.91], the “logFC TTK” value in assay [1] (experiment wp103) is given as −0.3267; in assay [1] (experiment wp107), −0.4781; in assay [1] (experiment wp133, 2 hr), −0.3833; in assay [1] (experiment wp133, 4 hr) it was −0.5052. Further, the “logFC TTK (P33981)” value in assay [1] (experiment wp103) is reported as −0.3267; in assay [1] (experiment wp107) it was −0.4781; in assay [1] (experiment wp133, 2 hr), −0.3833; in assay [1] (experiment wp133, 4 hr), −0.5052. For the same molecule, the “logFC LIMK1” value in assay [5] (direction down, experiment wp103) is reported as −1.238; in assay [5] (direction down, experiment wp105) it was −1.464; in assay [5] (direction down, experiment wp107), −0.8704; in assay [5] (direction down, experiment wp114), −0.546; in assay [5] (direction down, experiment wp133, 1 hr), −0.4117; in assay [5] (direction down, experiment wp133, 2 hr), −0.8026. Also, the “logFC LIMK1” value in assay [5] (direction down, experiment wp133, 4 hr) was −1.371; in assay [5] (direction down, experiment wp160, 2 hr), −0.8634; in assay [5] (direction down, experiment wp160, 4 hr) it was −1.366; in assay [5] (direction down, experiment wp172), −1.869; in assay [5] (experiment wp103, down), −1.238; in assay [5] (experiment wp105, down) it was −1.464. The “logFC LIMK1” value is reported as −0.8704 in assay [5] (experiment wp107, down); −0.546 in assay [5] (experiment wp114, down); −0.4117 in assay [5] (experiment wp133, 1 hr, down); −0.8026 in assay [5] (experiment wp133, 2 hr, down); −1.371 in assay [5] (experiment wp133, 4 hr, down); −0.8634 in assay [5] (experiment wp160, 2 hr, down). Further, the “logFC LIMK1” value is −1.366 in assay [5] (experiment wp160, 4 hr, down) and −1.869 in assay [5] (experiment wp172, down). Further, the “logFC of CDK17” value in assay [2] (experiment wp016) is reported as −0.7341; in assay [2] (experiment wp016, 1 uM) it was −0.7503; in assay [2] (experiment wp103), −0.6015; in assay [2] (experiment wp105), −0.732; in assay [2] (experiment wp107), −0.6145; in assay [2] (experiment wp133, 2 hr), −0.372. The “logFC of CDK17” value in assay [2] (experiment wp133, 4 hr) is given as −0.611; in assay [2] (experiment wp160, 4 hr), −0.3952; in assay [2] (experiment wp172), −0.7492. The “logFC CDK17 (Q00537)” value in assay [2] (Experiment wp105) is −0.732; in assay [2] (experiment wp016, 1 uM) it was −0.7503; in assay [2] (experiment wp016) it was −0.7341; in assay [2] (experiment wp103), −0.6015; in assay [2] (experiment wp107), −0.6145; in assay [2] (experiment wp133, 2 hr), −0.372. For the same molecule, the “logFC CDK17 (Q00537)” value is reported as −0.611 in assay [2] (experiment wp133, 4 hr); −0.3952 in assay [2] (experiment wp160, 4 hr); −0.7492 in assay [2] (experiment wp172). The “logFC CDK13” value in assay [3] (experiment wp016) was −0.6046; in assay [3] (experiment wp016, 1 uM) it was −0.5749; in assay [3] (experiment wp103), −0.4833; in assay [3] (experiment wp105) it was −0.4649; in assay [3] (experiment wp107) it was −0.7112; in assay [3] (experiment wp133, 4 hr), −0.5562. The “logFC CDK13” value in assay [3] (experiment wp160, 4 hr) is given as −0.4805; in assay [3] (experiment wp172), −0.859. Also, the logFC in assay [3] (CDK13 (Q14004-1), experiment wp016, 1 uM) was −0.5749. In addition, the “logFC CDK13 (Q14004-1)” value in assay [3] (Experiment wp172) is recorded as −0.859; in assay [3] (experiment wp016), −0.6046; in assay [3] (experiment wp103), −0.4833; in assay [3] (experiment wp105) it was −0.4649; in assay [3] (experiment wp107), −0.7112; in assay [3] (experiment wp133, 4 hr) it was −0.5562. The “logFC CDK13 (Q14004-1)” value in assay [3] (experiment wp160, 4 hr) is −0.4805.
In the case of `Cc1ccc(NC(=O)c2cccc(C(F)(F)F)c2)cc1N1Cc2cnc(Nc3ccc(N4CCN(CCCOc5cccc6c5C(=O)N(C5CCC(=O)NC5=O)C6=O)CC4)nc3)nc2N(C)C1=O` (stereo not shown) [DB0662], the logFC in assay [4] (experiment wp168) is −0.452; in assay [4] (experiment wp168, direction down), −0.452. Besides, the “logFC LIMK1” value in assay [5] (direction down, experiment wp168) is recorded as −1.911; in assay [5] (experiment wp168, down), −1.911.
Take `CCc1cnn2c(N(Cc3ccc(N)nc3)C(=O)CCOCCOCCOCCNC(=O)CNc3cccc4c3C(=O)N(C3CCC(=O)NC3=O)C4=O)cc(N3CCCC[C@H]3CCO)nc12` (stereo partly shown) [MFH.5.115.2]: in assay [1] (experiment wp076), the “logFC TTK” value is recorded as −0.3249 and the “logFC TTK (P33981)” value is reported as −0.3249.
